Measured values reported in ChEMBL document CHEMBL1134141, “Diaminopurine-acridine heterodimers for specific recognition of abasic site containing DNA. Influence on the biological activity of the position of the linker on the purine ring” (Bioorg Med Chem Lett, 2001).

What was measured:
L1210 = test: The compound was evaluated for cytotoxicity against L1210 cell line; type: functional, cell-based; conditions: Mus musculus
A549 [1] = test: The compound was evaluated for cytotoxicity against A549 cell line; type: functional, cell-based; conditions: Homo sapiens
A549 [2] = test: Cytotoxicity of compound in synergy in BCNU (10 uM) against A549 cell line; type: functional, Homo sapiens
A549 [3] = test: Cytotoxicity of compound in synergy in 94% BCNU (10 uM) against A549 cell line; type: functional, Homo sapiens

SMILES | IC50 (L1210) | IC50 (A549 [1]) | Synergy (A549 [2]) | Synergy (A549 [3])
COc1ccc2nc3cc(Cl)ccc3c(NCCCC/N=C(\N)NCCCNc3nc(N)c4[nH]cnc4n3)c2c1 | 36 µM | 5 µM | – | –
COc1ccc2nc3cc(Cl)ccc3c(NCCCC/N=C(\N)NCCCNc3[nH]c(N)nc4ncnc3-4)c2c1 | > 100 µM | 5 µM | – | –
COc1ccc2nc3cc(Cl)ccc3c(NCCCC/N=C(\N)NCCCn3cnc4c(N)nc(N)nc43)c2c1 | 60 µM | 6.5 µM | 16% | –
COc1ccc2nc3cc(Cl)ccc3c(NCCCN(CCCN(CCn3cnc4c(N)ncnc43)C(=N)N)C(=N)N)c2c1 | 33 µM | 10 µM | – | 94%
